Tests used:
MCF7 cells [1] = assay: MTT cell proliferation assay, MCF7; format: cell-based; conditions: Homo sapiens, 48 h incubation, x̄ ± s, n = 6
Experimental: (§1) MCF7, HepG2, SGC-7901 and MCF-10A were purchased from the National Infrastructure of Cell Line Resources in the Chinese Academy of Sciences (Shanghai Institute of Biochemistry and Cell Biology, Shanghai, China). Cells were maintained using RPMI-1640 medium with 10% fetal bovine serum. The cells were maintained at 37 °C in a 5% CO2-containing incubator for all treatments. Logarithmic growth phase cells were used in all experiments.
(§2) The effect of compounds on the proliferation of cancer cells was determined with an MTT assay. Cells monolayer in exponential growth were seeded in 96-well plates at 5 × 10^3 cells/well. After cultured at 37 °C for 24 h, the culture medium was removed, then compounds (3a–4c) (1.25, 2.5, 5, 10, 20, 40, 80 μM) and HCPT (4, 8, 16 μM) were added. After 48 h incubation, 100 µL of MTT was added to each well and then cultured for 4 h in a 37 °C incubator. After that, the medium was aspirated, 150 µL of DMSO was then added to each well, and the 96-well plates were placed on an orbital shaker for 12 min until the formazan dissolved completely. The absorbance was measured at a test wavelength of 490 nm with a microplate reader, the optical density (OD) values were tested and the inhibitory rate and half inhibitory concentration (IC50) were calculated for each administration group.

HepG2 cells = assay: MTT cell proliferation assay, HepG2; format: cell-based; conditions: Homo sapiens, 48 h incubation, x̄ ± s, n = 6
Experimental: as §1, §2

SGC-7901 cells = assay: MTT cell proliferation assay, SGC-7901; format: cell-based; conditions: Homo sapiens, 48 h incubation, x̄ ± s, n = 6
Experimental: as §1, §2

MCF-10A cells = assay: In vitro cytotoxicity against normal breast cell line; format: cell-based
Experimental: as §1, §2

MCF7 cells [2] = assay: Apoptosis of MCF7 cells by flow cytometry; format: cell-based; conditions: MCF7, 56 μM, 48 h, n = 3
Experimental: Cells were cultured in the medium for 24 h and treated with compounds in different concentrations and HCPT incubated for 48 h. The cells were centrifuged at 1000 rpm for 10 min and washed with PBS. Subsequently, the cells were […] stained with annexin V-FITC (10 μL) and propidium iodide (PI; 10 μL). The proportion of apoptotic cells was then measured by flow cytometry.

MCF7 cells [3] = assay: Cell cycle detection by flow cytometry (PI); format: cell-based; conditions: 14, 28 and 56 μM, dose-dependent
Experimental: After the treatments, the harvested cells were incubated at 70% in ice-ethanol overnight. Subsequently, they were washed twice using PBS and incubated with propidium iodide (PI) and RNase A. Finally, the proportions of cells in different cell cycle phases were determined by flow cytometry.

MCF7 cells [4] = assay: Mitochondrial membrane potential assay (rhodamine 123, flow cytometry); format: cell-based; conditions: MCF7, dose–effect relationship
Experimental: MCF7 cells were cultured in 6-well plates, after treatment with compounds in different concentrations and positive control group (HCPT), cells were harvested, washed with PBS, and then stained with rhodamine 123 (100 µg) for 30 min at 37 °C. The cells were collected by pipetting, washed twice with PBS and analyzed by flow cytometry (BD Biosciences, San Jose, CA, USA).

Bcl-2 = assay: Western Blot, Bcl-2 expression in MCF7 cells; format: cell-based; conditions: MCF7, 14, 28, 56 μM, 48 h
Experimental: (§3) Cells were cultured in the medium for 24 h and treated with compounds in different concentrations and HCPT for 48 h. After lysis buffer (RIPA: PMSF = 100:1) was used to lyse cells. The lysate was further sonicated and centrifuged at 12,000 rpm for 15 min, then the supernatant obtained was collected and the denatured protein mixture was subjected to SDS gel electrophoresis and transferred to nitrocellulose membranes, and blocked with containing 5% nonfat milk. Then, the membranes were incubated with the primary antibodies (1:1000, overnight 4 °C) and secondary antibodies (1:5000, 1 h). Then, ECL Solution was used to detect the antigen–antibody complexes. The data were analyzed by NIH Image J 1.53a software.

Caspase-9 = assay: Western Blot, Caspase-9 expression in MCF7 cells; format: cell-based; conditions: MCF7, 14, 28, 56 μM, 48 h
Experimental: as §3

Caspase-3 = assay: Western Blot, Caspase-3 expression in MCF7 cells; format: cell-based; conditions: MCF7, 14, 28, 56 μM, 48 h
Experimental: as §3

Bax = assay: Western Blot, Bax expression in MCF7 cells; format: cell-based; conditions: MCF7, 14, 28, 56 μM, 48 h
Experimental: as §3

p53 = assay: Western Blot, p53 expression in MCF7 cells; format: cell-based; conditions: MCF7, 14, 28, 56 μM, 48 h
Experimental: as §3

MCF7 = system: MCF7; design: method as in PMID 32163051, PMID 22821173; conditions: breast cancer cell viability; cited from earlier work
MDA-MB-453 cells = system: MDA-MB-453 cells; design: method as in PMID 32163051, PMID 22821173; conditions: breast cancer cell viability; cited from earlier work

| SMILES | IC50 (MCF7 cells [1]) [µM] | IC50 (HepG2 cells) [µM] | IC50 (SGC-7901 cells) [µM] | further results |
| --- | --- | --- | --- | --- |
| CC[C@@]1(O)C(=O)OCc2c1cc1n(c2=O)Cc2cc3cc(O)ccc3nc2-1 [10-hydroxycamptothecin (HCPT), 10-hydroxycamptothecin, reference compound] | 7.56 ± 0.05 | 6.56 ± 0.45 | 7.96 ± 0.65 |  |
| CC(C)(C)[Si](C)(C)OC[C@@H]1C[C@@H](O)[C@H](n2cnc3c(NC(=O)c4cccs4)ncnc32)O1 [Compound 3a, 5′-O-(Tert-butyldimethylsilyl)-6-thiophenecarboxamide-3′-deoxya-denosine] | 114 ± 2.03 | 134 ± 5.12 | 102 ± 1.08 |  |
| CC(C)(C)[Si](C)(C)OC[C@@H]1C[C@@H](O)[C@H](n2cnc3c(NC(=O)c4ccco4)ncnc32)O1 [Compound 3b, 5′-O-(Tert-butyldimethylsilyl)-6-furancarboxamide-3′-deoxyadenosine] | 98.03 ± 0.04 | 60.4 ± 1.15 | 41.7 ± 2.36 |  |
| CC(C)(C)[Si](C)(C)OC[C@@H]1C[C@@H](O)[C@H](n2cnc3c(NC(=O)c4ccc(Cl)nc4)ncnc32)O1 [Compound 3c, 5′-O-(Tert-butyldimethylsilyl)-6-6-chloroformamide-3′-deoxya-denosine] | 45.8 ± 1.01 | 87.01 ± 0.04 | 82.6 ± 1.48 |  |
| O=C(Nc1ncnc2c1ncn2[C@@H]1O[C@H](CO)C[C@H]1O)c1cccs1 [Compound 4a, 6-Thiophenecarboxamide-3′-deoxyadenosine] | 27.6 ± 0.52 | 68.8 ± 3.34 | 38.93 ± 0.06 | in vitro cytotoxicity against MCF-10A (MCF-10A cells): low toxicity; percentage of apoptotic cells (MCF7 cells [2]): 50.422 ± 1.862%; effect on MCF7 cell cycle (MCF7 cells [3]): cell cycle arrest at the G0/G1 phase; positive expression rate and cell membrane potential with increase in dose (MCF7 cells [4]): decrease gradually; expression of Bcl-2 protein (Bcl-2): down-regulate; expression of Caspase-9 (Caspase-9): up-regulate; expression of Caspase-3 (Caspase-3): up-regulate; expression of Bax (Bax): up-regulate; expression of p53 (p53): up-regulate |
| O=C(Nc1ncnc2c1ncn2[C@@H]1O[C@H](CO)C[C@H]1O)c1ccco1 [Compound 4b, 6-Furancarboxamide-3′-deoxyadenosine] | 40.9 ± 1.67 | 33.37 ± 0.08 | 86.3 ± 2.35 |  |
| O=C(Nc1ncnc2c1ncn2[C@@H]1O[C@H](CO)C[C@H]1O)c1ccc(Cl)nc1 [Compound 4c, 6-6-Chloronicotinamide-3′-deoxyadenosine] | 45.3 ± 0.58 | 48.4 ± 0.79 | 80.4 ± 1.05 |  |
| Nc1ncnc2c1ncn2[C@@H]1O[C@H](CO)C[C@H]1O [Cordycepin] | 46.9 ± 1.62 | 51.8 ± 1.36 | 51.3 ± 3.77 | IC50 (MCF7): 135 µM; IC50 (MDA-MB-453 cells): 70 µM |

From publication PMC10819979, “Antitumor Mechanism and Therapeutic Potential of Cordycepin Derivatives” (Molecules, 2024)
